Assay results from US10799501B2, “Combination of an inhibitor of PARP with an inhibitor of GSK-3 or DOT1L” (King's College London, priority 2015, dated 2020).

System: MLL pre-LSC
Assay: Colony formation of MLL pre-LSC with PARPi, LiCl or combination
Type: cell-based, mouse
Conditions: seven days; 8 mM LiCl, 1 μM Olaparib
Procedure: Colonies were scored 6-7 days after plating. For other in vitro studies, mouse leukemic cells and primary AML cell lines were subjected to continuously Olaparib (1 μM) or LiCl (8 mM) treatment in liquid culture for whole duration as indicated in the figures or figure legends. For human leukemic cell lines, experiments were performed as described above with 5 μM Olaparib. 1×10^5 cells were cytospun for 5 min at 300 g onto glass slides. Slides were then stained with May-Grunwald solution (Sigma-Aldrich) for 3 min at room temperature. After washing in water, they were incubated for 20 min in Giemsa solution (Sigma-Aldrich) (1:20 in water). Slides were washed again in water before being mounted with Mowiol. Cells were counted in at least 5 fields for each slide, for a total of over 100 cells per condition. NBT reduction assay were performed to determine myeloid differentiation. 0.1% of NBT (final concentration) was added to the liquid culture or semi-solid methocult and incubated at 37° C. CO2 incubator for 3 hrs and 12 hrs, respectively. Cells were then washed in PBS and the differentiated cells were indicated by the deposition of dark blue insoluble formazan (NBT positive cells) and the percentage of differentiated cells were counted under microscopy. At least 200 cells were counted in most of the cases.

**Q.** Which “colony forming ability / growth inhibition” value does the source give for `O=C(c1cc(Cc2n[nH]c(=O)c3ccccc23)ccc1F)N1CCN(C(=O)C2CC2)CC1` [Olaparib, 4-[(3-[(4-cyclopropylcarbonyl)piperazin-4-yl]carbonyl)-4-fluorophenyl]methyl(2H)-phthalazin-1-one] here?
**A.** The value was “non-effective”.
